The target of experiment [1] is HIV-2 reverse transcriptase (Human immunodeficiency virus 2). The experiment can be described thus: Compound was evaluated for inhibition of HIV-2 reverse transcriptase using rC.dG and [3H]-dGTP as substrates at 100 ug/mL.
Experiment [2] shares this target. Briefly: Evaluated for inhibition of HIV-2 reverse transcriptase.
For experiment [3] the target is unchanged. The experiment can be described thus: Compound was evaluated for inhibition of HIV-2 reverse transcriptase using rC.dG and [3H]-dGTP as substrates at 100 ug/mL. This is another data set of the same source.

What is called IC50 is the concentration that inhibits the measured activity by half. `Cc1ccc(NC(=O)CCCCC(=O)Nc2ccc(C)cc2C(=O)O)c(C(=O)O)c1` [2-[4-(2-carboxy-4-methylphenylcarbamoyl)butylcarboxamido]-5-methylbenzoic acid] came in with an IC50 in experiment [1] of 9.2 µM. Still for that read-out and setting: the value for `O=C(Nc1ccc(Br)cc1C(=O)O)c1ccc(C(=O)Nc2ccc(Br)cc2C(=O)O)nc1` [5-bromo-2-{[(5-{[(4-bromo-2-carboxyphenyl)amino]carbonyl}pyridin-2-yl)carbonyl]amino}benzoic acid] was 5.5 µM. For the compound `COc1ccc(NC(=O)CCCCC(=O)Nc2ccc(OC)cc2C(=O)O)c(C(=O)O)c1` [2-[4-(2-carboxy-4-methoxyphenylcarbamoyl)butylcarboxamido]-5-methoxybenzoic acid], in experiment [2], the 50% inhibitory concentration (IC50) was 4.3 µM. As to `O=C(CCCCC(=O)Nc1ccccc1C(=O)O)Nc1ccccc1C(=O)O` [2-({6-[(2-carboxyphenyl)amino]-6-oxohexanoyl}amino)benzoic acid], in experiment [1], the IC50 is 9 µM. Turning to `O=C(CCCC(=O)Nc1ccc(Cl)cc1C(=O)O)Nc1ccc(Cl)cc1C(=O)O` [2-({5-[(2-carboxy-4-chlorophenyl)amino]-5-oxopentanoyl}amino)-5-chlorobenzoic acid], in experiment [2], the half-inhibitory concentration (IC50) was 9.6 µM. `O=C(CCCCC(=O)Nc1ccc(Br)cc1C(=O)O)Nc1ccc(Br)cc1` [5-Bromo-2-[5-(4-bromo-phenylcarbamoyl)-pentanoylamino]-benzoic acid] yielded a concentration for half-maximal inhibition (IC50) in experiment [1] of 32 µM. The compound `O=C(CCCCCCC(=O)Nc1ccc(Br)cc1C(=O)O)Nc1ccc(Br)cc1C(=O)O` [5-bromo-2-[6-(4-bromo-2-carboxyphenylcarbamoyl)hexylcarboxamido]benzoic acid] had an IC50 in experiment [3] of 7.4 µM. As for `O=C(CCCCC(=O)Nc1ccc(Cl)cc1C(=O)O)Nc1ccc(Cl)cc1C(=O)O` [2-({6-[(2-carboxy-4-chlorophenyl)amino]-6-oxohexanoyl}amino)-5-chlorobenzoic acid], in experiment [2], inhibition was half-maximal at 1.8 µM (IC50).

Take `CSc1ccc(NC(=O)CCCCC(=O)Nc2ccc(SC)cc2C(=O)O)c(C(=O)O)c1` [2-[4-(2-carboxy-4-methylsulfanylphenylcarbamoyl)butylcarboxamido]-5-methylsulfanylbenzoic acid]: it took 6.9 µM to reach half-maximal inhibition in experiment [2] (IC50).

In the case of `O=C(CCCCC(=O)Nc1ccc(Br)cc1C(=O)O)Nc1ccc(Br)cc1C(=O)O` [5-bromo-2-({6-[(4-bromo-2-carboxyphenyl)amino]-6-oxohexanoyl}amino)benzoic acid], the IC50 in experiment [2] is 1.7 µM.

(Values after BindingDB's records for doi:10.1016/s0960-894x(98)00214-5 (Glaxowellcome Medicines Research Center, 1999).)
